Here are results for four compounds from article PMC4255739 (Journal of Medicinal Chemistry, 2014).

For data set [1], the target named is CYP3A4 (Homo sapiens, UniProt P08684). As to the kind of experiment: CYP450 panel inhibition, CYP3A4. Conditions: human liver microsomes, pH 7.4, probe testosterone.
In data set [2] the target is T1, caspase 5 (Homo sapiens, UniProt P51878).
T1 sequence (P51878 138-434 limits assumed): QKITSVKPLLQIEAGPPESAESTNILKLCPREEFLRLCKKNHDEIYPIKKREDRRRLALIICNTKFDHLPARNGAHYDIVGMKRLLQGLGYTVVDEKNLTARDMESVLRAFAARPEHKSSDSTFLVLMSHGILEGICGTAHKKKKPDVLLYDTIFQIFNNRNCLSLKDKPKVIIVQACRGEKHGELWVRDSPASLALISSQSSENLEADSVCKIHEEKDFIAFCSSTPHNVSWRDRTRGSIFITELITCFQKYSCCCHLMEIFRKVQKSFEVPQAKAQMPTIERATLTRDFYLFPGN
As to the kind of experiment: Protease profiling panel, caspase 5. It is filed as biochemical. Conditions: 20 μM to 0.1 nM range.

Data set [3] concerns the target T2, cathepsin K (Homo sapiens, UniProt P43235).
T2 sequence (P43235 115-329): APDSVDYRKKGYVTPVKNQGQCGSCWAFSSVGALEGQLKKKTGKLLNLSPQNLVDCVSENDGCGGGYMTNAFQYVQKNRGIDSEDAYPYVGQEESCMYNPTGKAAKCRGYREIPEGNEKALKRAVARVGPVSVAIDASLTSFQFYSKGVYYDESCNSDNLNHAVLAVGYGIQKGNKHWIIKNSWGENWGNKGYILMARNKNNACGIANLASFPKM
Kind of data set: Protease profiling panel, cathepsin K. It is filed as biochemical. Conditions: read-out: highest inhibitory activity against cathepsin K.

The subject of data set [4] is MMP-8. Conditions: read-out: IC50 MMP-8; antitarget selectivity; cited from earlier work.
Data set [5] concerns MMP-1. Conditions: read-out: IC50 MMP-1; antitarget selectivity; cited from earlier work.
Data set [6] concerns the target T3, MMP-13 (Homo sapiens, UniProt P45452). Kind of data set: Single inhibitor kinetics, MMP-13 hydrolysis of fTHP-15. It is filed as biochemical.
In data set [7] the target is T3, MMP-13. Kind of data set: Cartilage explant assay. Conditions: read-out: inhibition of cartilage degradation. It is filed as biochemical.
Data set [8] concerns the target T3, MMP-13. Kind of data set: Dual inhibition kinetics. It is filed as biochemical.

One may read the IC50 as the concentration needed to halve the response being measured. For orientation: pKi means −log10 of the Ki, conventionally taken in molar units. Higher therefore signals a low Ki. The Ki is the dissociation constant of the complex between target and ligand, obtained from inhibition or displacement.

Sequence of CYP3A4 (P08684 whole entry): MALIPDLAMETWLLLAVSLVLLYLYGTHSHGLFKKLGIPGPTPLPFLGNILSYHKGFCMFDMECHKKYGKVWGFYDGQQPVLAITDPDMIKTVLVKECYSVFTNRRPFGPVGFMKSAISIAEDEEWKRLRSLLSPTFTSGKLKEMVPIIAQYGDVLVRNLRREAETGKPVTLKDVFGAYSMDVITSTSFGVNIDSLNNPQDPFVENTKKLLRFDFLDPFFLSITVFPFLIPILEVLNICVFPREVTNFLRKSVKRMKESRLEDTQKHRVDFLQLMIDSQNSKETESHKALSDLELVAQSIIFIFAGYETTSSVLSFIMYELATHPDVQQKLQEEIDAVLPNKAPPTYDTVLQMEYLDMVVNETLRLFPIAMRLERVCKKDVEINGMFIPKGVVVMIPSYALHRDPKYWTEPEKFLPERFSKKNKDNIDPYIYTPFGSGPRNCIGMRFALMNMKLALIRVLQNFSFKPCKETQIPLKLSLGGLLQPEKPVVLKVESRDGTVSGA

As for `Cc1ccc(CSc2nc(O)c3c(n2)CCC3)cc1` [Compound 2], the inhibition at 20 µM in data set [1] and in data set [3] was 20% each time. Further, in data set [2], the “activity against caspase 5 on inspection of dose response” value was “artifactual”. The IC50 in data set [4] and in data set [5] was greater than 40 µM throughout.

Take `COC(=O)c1ccc(CSc2nc3c(c(=O)[nH]2)CCC3)cc1` [Compound 3]: the IC50 in data set [4] and in data set [5] was greater than 40 µM in each case.

With `CC(=O)NO` [Compound 6, N-hydroxyacetamide], the negative logarithm of the Ki (pKi) in data set [6] (from fTHP-15 Ki) was 2.9. Moreover, in data set [6] (read-out: fTHP-15 Ki, fTHP-15 substrate, mixed inhibition model, nonlinear regression), the Ki is 1190 µM.

Consider `Oc1nc(SCc2ccc(Cl)cc2)nc2c1CCC2` [Compound 1], for which the inhibition at 20 µM in data set [1] was determined as 14%. The inhibition at 10 µM in data set [7] turned out to be 69 ± 17%. Further, the “B value (Yonetani–Theorell)” value in data set [8] (1 (0–2 μM) in combination with 6 (AHA, 0–1.25 mM), B<1 = synergistic binding) is recorded as less than 1; in data set [8] (1 in combination with 4, B<1 = positive cooperativity) it was less than 1; in data set [8] (1 in combination with 5, B<1 = synergistic binding), less than 1.
